Test results: publication PMC3577938 (Organic & biomolecular chemistry, 2013)

Columns and labels:
human TLR7 or human TLR8 = assay type: cell-based; conditions: for agonistic activity (in words): primary TLR8/TLR7 reporter gene assays, receptor not given; for TLR8 versus TLR7 selectivity (in words): primary reporter gene screens
[1] = tested on: human peripheral blood mononuclear cells (hPBMC); experiment: Cytokine induction in human PBMCs; assay type: cell-based; conditions: human PBMCs stimulated 12 h
[2] = tested on: New Zealand White rabbits; experiment: Rabbit immunization with bovine α-lactalbumin and antigen-specific ELISA; assay type: in vivo; conditions: compared with 8c
human TLR8 = biological target: T1, human TLR8 (Homo sapiens, UniProt Q9NR97); experiment: Human TLR8-specific reporter gene assay; assay type: cell-based; conditions: for Agonistic Activity (μM) TLR8: EC50 in human TLR8-specific reporter gene assay, Inactive = EC50 >100 μM
T1 sequence (Q9NR97 27-1041): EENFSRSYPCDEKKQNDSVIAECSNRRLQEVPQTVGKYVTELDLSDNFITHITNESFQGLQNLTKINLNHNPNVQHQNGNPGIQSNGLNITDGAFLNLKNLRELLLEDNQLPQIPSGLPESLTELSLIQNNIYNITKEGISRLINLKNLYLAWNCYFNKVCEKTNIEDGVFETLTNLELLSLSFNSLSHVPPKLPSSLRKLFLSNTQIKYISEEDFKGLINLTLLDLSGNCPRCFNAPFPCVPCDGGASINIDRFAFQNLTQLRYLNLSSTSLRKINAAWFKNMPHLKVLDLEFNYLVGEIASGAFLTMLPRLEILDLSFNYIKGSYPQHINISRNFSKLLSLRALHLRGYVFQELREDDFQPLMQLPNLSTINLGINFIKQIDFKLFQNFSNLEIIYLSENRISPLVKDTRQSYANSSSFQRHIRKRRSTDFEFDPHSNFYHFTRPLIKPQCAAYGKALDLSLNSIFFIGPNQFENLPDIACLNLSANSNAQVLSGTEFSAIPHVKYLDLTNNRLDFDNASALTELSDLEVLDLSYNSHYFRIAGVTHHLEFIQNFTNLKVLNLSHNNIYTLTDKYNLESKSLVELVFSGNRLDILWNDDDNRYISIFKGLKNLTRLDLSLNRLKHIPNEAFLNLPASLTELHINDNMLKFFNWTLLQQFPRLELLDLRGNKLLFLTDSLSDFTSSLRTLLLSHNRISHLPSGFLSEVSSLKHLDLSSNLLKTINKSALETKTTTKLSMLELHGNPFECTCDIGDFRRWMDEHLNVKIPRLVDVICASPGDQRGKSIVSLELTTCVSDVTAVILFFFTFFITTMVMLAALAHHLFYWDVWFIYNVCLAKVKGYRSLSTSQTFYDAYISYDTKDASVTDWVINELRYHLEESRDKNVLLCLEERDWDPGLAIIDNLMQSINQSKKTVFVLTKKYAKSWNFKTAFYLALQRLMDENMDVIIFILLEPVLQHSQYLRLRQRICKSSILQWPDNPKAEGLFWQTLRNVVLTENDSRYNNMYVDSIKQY

human TLR7 = biological target: T2, human TLR7 (Homo sapiens, UniProt Q9NYK1); experiment: Human TLR7-specific reporter gene assay; assay type: cell-based; conditions: EC50 in human TLR7-specific reporter gene assay; Inactive = EC50 >100 μM
T2 sequence (Q9NYK1 27-1049): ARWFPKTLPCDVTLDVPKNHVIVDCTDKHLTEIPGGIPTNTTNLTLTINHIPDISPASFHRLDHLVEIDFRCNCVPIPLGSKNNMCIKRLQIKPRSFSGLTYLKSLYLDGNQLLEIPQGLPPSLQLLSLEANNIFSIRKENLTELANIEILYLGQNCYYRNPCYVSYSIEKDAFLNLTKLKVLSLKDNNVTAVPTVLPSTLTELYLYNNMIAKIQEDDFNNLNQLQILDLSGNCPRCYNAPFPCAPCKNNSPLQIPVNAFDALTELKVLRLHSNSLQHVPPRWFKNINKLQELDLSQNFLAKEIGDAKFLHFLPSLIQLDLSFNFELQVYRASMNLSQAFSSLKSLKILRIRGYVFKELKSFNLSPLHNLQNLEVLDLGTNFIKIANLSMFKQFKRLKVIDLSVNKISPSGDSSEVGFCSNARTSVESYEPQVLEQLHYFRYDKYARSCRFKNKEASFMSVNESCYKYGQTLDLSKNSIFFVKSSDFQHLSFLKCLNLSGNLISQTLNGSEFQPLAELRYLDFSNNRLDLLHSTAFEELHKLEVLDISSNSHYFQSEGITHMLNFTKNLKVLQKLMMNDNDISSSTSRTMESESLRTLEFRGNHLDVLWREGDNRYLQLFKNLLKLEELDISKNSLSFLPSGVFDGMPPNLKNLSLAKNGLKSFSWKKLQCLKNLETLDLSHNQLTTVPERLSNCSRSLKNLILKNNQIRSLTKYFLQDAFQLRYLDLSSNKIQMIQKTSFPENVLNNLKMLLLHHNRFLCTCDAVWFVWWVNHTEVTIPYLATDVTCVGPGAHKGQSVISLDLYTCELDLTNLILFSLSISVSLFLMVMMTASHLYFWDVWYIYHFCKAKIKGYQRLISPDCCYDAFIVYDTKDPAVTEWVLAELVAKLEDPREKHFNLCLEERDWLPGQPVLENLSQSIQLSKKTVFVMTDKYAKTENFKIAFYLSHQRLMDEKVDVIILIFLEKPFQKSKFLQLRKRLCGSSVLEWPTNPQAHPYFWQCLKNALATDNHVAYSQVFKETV

SMILES | agonistic activity (in words) (human TLR7 or human TLR8) | TLR8 versus TLR7 selectivity (in words) (human TLR7 or human TLR8) | proinflammatory cytokine induction in hPBMCs (in words) [1] | consistency of adjuvanticity (confidence intervals of antibody titers) [2] | TLR8-agonistic potency/activity (in words) (human TLR8; hTLR8 reporter gene assay) | Agonistic Activity (μM) TLR7 (human TLR7) | Agonistic Activity (μM) TLR8 (human TLR8)
CC(C)Cc1nc2c(N)nc3ccccc3c2s1 [Compound 8j, 2-isobutylthiazolo[4,5-c]quinolin-4-amine] | well tolerated | substantially more TLR8-selective | inferior in their cytokine induction profiles |  |  |  | 
CCCCc1nc2c(N)nc3ccccc3c2s1 [Compound 8d, 2-butylthiazolo[4,5-c]quinolin-4-amine] |  |  |  | greater consistency and uniformity |  |  | 
CCCc1nc2c(NC=O)nc3ccccc3c2s1 [Compound 15d, N-(2-propylthiazolo[4,5-c]quinolin-4-yl)formamide] | active |  | near-complete loss of activity |  | comparable to that of 8c |  | 
CCCCCCCC(=O)Nc1nc2ccccc2c2sc(CCC)nc12 [Compound 15g, N-(2-propylthiazolo[4,5-c]quinolin-4-yl)octanamide] | inactive |  |  |  |  | Inactive | Inactive
CCCCc1nc2c(NC(C)=O)nc3ccccc3c2s1 [Compound 18b, N-(2-butylthiazolo[4,5-c]quinolin-4-yl)acetamide] | selective loss of activity |  |  |  |  | Inactive | Inactive
CC[C@H](C)c1nc2c(N)nc3ccccc3c2s1 [Compound 8n, (S)-2-(sec-butyl)thiazolo[4,5-c]quinolin-4-amine] | well tolerated | substantially more TLR8-selective | inferior in their cytokine induction profiles |  |  |  | 
CCCCNc1nc2ccccc2c2sc(CCC)nc12 [Compound 15a, N-butyl-2-propylthiazolo[4,5-c]quinolin-4-amine] | devoid of any agonistic activity |  |  |  |  | Inactive | Inactive
CCCCCCNc1ccc2nc(N)c3nc(CCC)sc3c2c1 [Compound 13a, N^8-hexyl-2-propylthiazolo[4,5-c]quinoline-4,8-diamine] | inactive |  |  |  |  | Inactive | Inactive
CC[C@H](C)Cc1nc2c(N)nc3ccccc3c2s1 [Compound 8o, (S)-2-(2-methylbutyl)thiazolo[4,5-c]quinolin-4-amine] | active | substantially more TLR8-selective | inferior in their cytokine induction profiles |  |  |  | 
CC(C)(C)Cc1nc2c(N)nc3ccccc3c2s1 [Compound 8k, 2-neopentylthiazolo[4,5-c]quinolin-4-amine] | inactive |  |  |  |  | Inactive | Inactive
